Experimental data from paper PMC9822133, “Design, Synthesis and Antiproliferative Evaluation of Bis-Indole Derivatives with a Phenyl Linker: Focus on Autophagy” (Molecules, 2022).

What was measured:
[1] = system: p62/SQSTM1; experiment: Western blot, p62; type: cell-based, human; conditions: A549, 24, 48, 72 h, p < 0.001 vs DMSO
Source text: Protein p62, also known as sequestosome 1, is a multifunctional, classic autophagy receptor, considered together with LC3AB as an important marker of ongoing autophagic flux. It is involved in cell signaling, metabolism, oxidative stress and cell death. Its main function is the degradation of misfolded proteins through the ubiquitin–proteasome system (UPS) and autophagy, thereby maintaining intracellular proteostasis. P62 binds the autophagosomal membrane protein LC3 and brings p62-containing cytoplasmic contents to the autophagosome for degradation. […] This protein is normally degraded during autophagy after interaction with LC3 II [26]. On the other hand, accumulation of p62 has also been cited in cancer cells exposed to a variety of potential anticancer compounds [27, 28, 29].
(§1) A549 cells were seeded on Petri dishes (55 cm^2) at a density of 1 × 10^6 and allowed to culture in the medium. After 24 h, the test substance was added, and the cells were incubated for 24, 48 and 72 h. […] After lysis, the cells were sonicated, and the protein concentration in the samples was quantified using the Pierce® BCA Protein Assay Kit (Thermo Scientific, Rockford, IL, USA) and measured by an automated Cytation™ 3 Cell Imaging Multi-Mode Reader (Biotek) at a wavelength of 570 nm. […]

[2] = system: A549 cells; experiment: MTT assay with chloroquine combination; type: cell-based, human; conditions: 49 20 μM + CQ 5, 10 and 20 μM, 72 h
Method: The MTT assay is a colorimetric method used to quantify the metabolic activity of cells. MTT (3-(4,5-di-methylthiazol-2-yl)2,5-diphenyltetrazolium bromide) (Sigma-Aldrich Chemie, Steinheim, Germany) is reduced by oxidoreductases in the cytosol of cells to light-absorbing formazan, the presence of which can be measured spectrophotometrically and determines the half-maximal inhibitory concentration (IC50). A549 cells were seeded in […] culture plates at a density of 5 × 10^3 per well. […]
We also incubated the cells with chloroquine at concentrations of 5–20 µM, which was added 1 h before the addition of the test substance, and cisplatin at concentrations of 3–10 µM. Cisplatin was added 24 h after the addition of 49. After 72 h of incubation, 10 µL of MTT (5 mg/mL) was added to each well. After 4 h, formazan crystals formed in the wells, which were dissolved in 100 uL of 10% SDS (sodium dodecyl sulfate). After 24 h, the absorbance was measured at a wavelength of 540 nm using an automated Cytation™ 3 Cell Imaging Multi-Mode Reader (Biotek, Winooski, VT, USA). These experiments were performed in three independent replicates.

[3] = system: BLM; experiment: MTT screening assay, BLM; type: cell-based; conditions: Homo sapiens, 72 h incubation
[4] = system: glutathione-S-transferase (GST); experiment: GST activity in treated A549 cells; type: cell-based, human; conditions: A549, 20 µM
Source text: Glutathione is an important intracellular molecule involved in carcinogen detoxification. On the other hand, its elevated state in cancer cells is often associated with resistance to chemotherapy. […] Because high levels of GSH are associated with cancer cell resistance, the GHS-depleting effect of compound 49 could be interesting due to new cancer chemosensitizer development. In the case of GST and GR, we hypothesize that an increase in the activity of both enzymes may be a compensatory mechanism induced by GSH depletion.
Both floating and adherent A549 cells were harvested at 24, 48, and 72 h after treatment with compound 49 (20 µM). SOD determination kit, Glutathione Peroxidase Cellular Activity Assay kit, Glutathione Reductase Assay Kit and Glutathione-S-transferase (GST) Assay Kit (all Sigma Aldrich, Germany) were used for the detection of relevant enzyme activity. Reduced glutathione (GSH) content was measured by the method originally described by Floreani et al.. Assays were performed on an M 501 single beam UV/VIS spectrophotometer (Spectronic Camspec Ltd., Leeds, United Kingdom). All measured parameters were calculated per milligram or gram of protein determined using the bicinchoninic acid assay.

[5] = system: Beclin-1; experiment: Western blot, Beclin-1; type: cell-based, human; conditions: A549, all time periods, most significantly after 24 h
Source text: Beclin-1 plays a key role in the autophagy process, which is activated in cells during periods of stress. It ensures the recruitment of autophagosomal proteins to the pre-autophagosomal structure (PAS) and is part of a complex that is essential for the induction of autophagy (VSP34 complex). It also interacts with proteins from the Bcl-2 family, by which it can be inactivated or cleaved by caspases. This is considered a crosstalk between autophagy and apoptosis. […] There is no mention in the literature focusing on Beclin-1 (and even autophagy) and indole phytoalexins. However, another phytoalexin, resveratrol, has been described to stimulate autophagy in oral cancer cells. […] Later, Fan et al. confirmed the ability of resveratrol to induce autophagy associated with upregulation of Beclin-1 also in lung cancer A549 cells.
as §1

[6] = system: LC3A/B; experiment: Western blot, LC3A/B; type: cell-based, human; conditions: A549, all time periods
Source text: LC3A/B, a microtubule-associated protein 1A/1B-light chain 3 (LC3), is a soluble intracellular protein. After synthesis of the pro-LC3 protein, this protein is first cleaved to form its cytosolic form known as LC3-I. The cytosolic form of LC3 (LC3-I) conjugates with phosphatidylethanolamine to form the LC3-phosphatidylethanolamine conjugate (LC3-II), which is recruited to autophagosomal membranes. After the formation of autophagosomes, their fusion with lysosomes occurs, autolysosomes are formed, and intra-autophagosomal material (cytoplasmic components including cytosolic proteins and organelles) is degraded by lysosomal hydrolases. Changes in the levels of the autophagosomal marker LC3-II are considered a sign of ongoing autophagy, and its lysosomal turnover thus reflects autophagic activity. […] Association of LC3A/B up-regulation and autophagy induction has also been referred previously.
as §1

CC(C)(C)OC(=O)n1cc(CNC(=O)Nc2ccc(NC(=O)NCc3cn(C(=O)OC(C)(C)C)c4ccccc34)cc2)c2ccccc21 [Compound 49, N,N′-(1,4-phenylene)bis{N′-[1-(tert-butoxycarbonyl)indol-3-yl]methyl (urea)}]
p62 expression [1]: significant increase | effect of chloroquine co-treatment on the antiproliferative effect of compound 49 (A549 cell survival) [2]: significantly potentiated | IC50 [3]: > 100 µM | GST ([4]; 24 h): 3.540 ± 1.07 μkat/mg Prot | GST ([4]; 48 h): 2.580 ± 0.44 μkat/mg Prot | GST ([4]; 72 h): 5.060 ± 0.52 μkat/mg Prot | Beclin-1 expression [5]: significantly upregulated | LC3A/B protein expression [6]: significantly increased
